Laboratory results taken from PubChem BioAssay (NCI).
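Compound exposure: 48 hours, 5 concentrations, 96-well plates. GI50 = concentration required for 50% inhibition of growth. TGI marks complete inhibition of growth.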

Experiments:
Experiment in all cases: NCI-60 cell line screen, 48 h
NCI-H226 lung = tested on: NCI-H226 lung
NCI-H23 lung = tested on: NCI-H23 lung
NCI-H460 lung = tested on: NCI-H460 lung
NCI-H522 lung = tested on: NCI-H522 lung
NCI/ADR-RES ovarian = tested on: NCI/ADR-RES ovarian
OVCAR-3 ovarian = tested on: OVCAR-3 ovarian
OVCAR-4 ovarian = tested on: OVCAR-4 ovarian
OVCAR-5 ovarian = tested on: OVCAR-5 ovarian
OVCAR-8 ovarian = tested on: OVCAR-8 ovarian
PC-3 prostate = tested on: PC-3 prostate
RPMI-8226 leukemia = tested on: RPMI-8226 leukemia
RXF 393 renal = tested on: RXF 393 renal
SF-268 CNS = tested on: SF-268 CNS
SF-295 CNS = tested on: SF-295 CNS
SF-539 CNS = tested on: SF-539 CNS
SK-MEL-2 melanoma = tested on: SK-MEL-2 melanoma
SK-MEL-28 melanoma = tested on: SK-MEL-28 melanoma
SK-MEL-5 melanoma = tested on: SK-MEL-5 melanoma
SK-OV-3 ovarian = tested on: SK-OV-3 ovarian
SN12C renal = tested on: SN12C renal
SNB-19 CNS = tested on: SNB-19 CNS
SNB-75 CNS = tested on: SNB-75 CNS
SW-620 colon = tested on: SW-620 colon
T-47D breast = tested on: T-47D breast
TK-10 renal = tested on: TK-10 renal
U251 CNS = tested on: U251 CNS
UACC-257 melanoma = tested on: UACC-257 melanoma
UACC-62 melanoma = tested on: UACC-62 melanoma
UO-31 renal = tested on: UO-31 renal

CN(C)CCNc1c2c(c(NCCN(C)C)c3c(CO)c[nH]c13)C(=O)c1ccccc1C2=O
TGI (NCI-H226 lung): 26.3 µM
GI50 (NCI-H23 lung): 2.31 µM
TGI (NCI-H23 lung): > 21.9 µM
GI50 (NCI-H460 lung): 1.92 µM
TGI (NCI-H460 lung): 9.12 µM
GI50 (NCI-H522 lung): 4.6 µM
TGI (NCI-H522 lung): 24.1 µM
GI50 (NCI/ADR-RES ovarian): 4.06 µM
TGI (NCI/ADR-RES ovarian): 22.7 µM
GI50 (OVCAR-3 ovarian): 3.91 µM
TGI (OVCAR-3 ovarian): 25.1 µM
GI50 (OVCAR-4 ovarian): 2.58 µM
TGI (OVCAR-4 ovarian): 11.5 µM
GI50 (OVCAR-5 ovarian): 12.7 µM
TGI (OVCAR-5 ovarian): 33.5 µM
GI50 (OVCAR-8 ovarian): 8.53 µM
TGI (OVCAR-8 ovarian): > 39.4 µM
GI50 (PC-3 prostate): 2.6 µM
TGI (PC-3 prostate): 26.8 µM
GI50 (RPMI-8226 leukemia): 2.17 µM
TGI (RPMI-8226 leukemia): 12.8 µM
GI50 (RXF 393 renal): 3.83 µM
TGI (RXF 393 renal): 12.5 µM
GI50 (SF-268 CNS): 4.27 µM
TGI (SF-268 CNS): 22.1 µM
GI50 (SF-295 CNS): 3.39 µM
TGI (SF-295 CNS): 17.8 µM
GI50 (SF-539 CNS): 1.96 µM
TGI (SF-539 CNS): 4.72 µM
GI50 (SK-MEL-2 melanoma): 11.2 µM
TGI (SK-MEL-2 melanoma): 23.2 µM
GI50 (SK-MEL-28 melanoma): 5.01 µM
TGI (SK-MEL-28 melanoma): 10.6 µM
GI50 (SK-MEL-5 melanoma): 1.81 µM
TGI (SK-MEL-5 melanoma): 4.67 µM
GI50 (SK-OV-3 ovarian): 4.64 µM
TGI (SK-OV-3 ovarian): 20.8 µM
GI50 (SN12C renal): 1.25 µM
TGI (SN12C renal): 8.33 µM
GI50 (SNB-19 CNS): 6.09 µM
TGI (SNB-19 CNS): 22.3 µM
GI50 (SNB-75 CNS): 6.38 µM
TGI (SNB-75 CNS): 22.6 µM
GI50 (SW-620 colon): 1.87 µM
TGI (SW-620 colon): 7.57 µM
GI50 (T-47D breast): 22.1 µM
TGI (T-47D breast): 48.2 µM
GI50 (TK-10 renal): 2.53 µM
TGI (TK-10 renal): 7.55 µM
GI50 (U251 CNS): 3.07 µM
TGI (U251 CNS): 22.5 µM
GI50 (UACC-257 melanoma): 9.85 µM
TGI (UACC-257 melanoma): > 76.2 µM
GI50 (UACC-62 melanoma): 7.64 µM
TGI (UACC-62 melanoma): 21.7 µM
GI50 (UO-31 renal): 3.31 µM
TGI (UO-31 renal): 23.2 µM
